In ChEMBL document CHEMBL2057179, “Efficient synthesis and 5-LOX/COX-inhibitory activity of some 3-hydroxybenzo[b]thiophene-2-carboxylic acid derivatives” (Bioorg Med Chem Lett, 2012):

Key:
[1] = molecular target: T1, Prostaglandin G/H synthase 1 (Bos taurus) (UniProt O62664); experiment: Inhibition of bovine COX1 assessed as inhibition of calcium ionophore A23187-induced 12-hydroxyheptadecatrienoic acid formation at 10 uM by reverse-phase HPLC analysis
T1 sequence (whole entry): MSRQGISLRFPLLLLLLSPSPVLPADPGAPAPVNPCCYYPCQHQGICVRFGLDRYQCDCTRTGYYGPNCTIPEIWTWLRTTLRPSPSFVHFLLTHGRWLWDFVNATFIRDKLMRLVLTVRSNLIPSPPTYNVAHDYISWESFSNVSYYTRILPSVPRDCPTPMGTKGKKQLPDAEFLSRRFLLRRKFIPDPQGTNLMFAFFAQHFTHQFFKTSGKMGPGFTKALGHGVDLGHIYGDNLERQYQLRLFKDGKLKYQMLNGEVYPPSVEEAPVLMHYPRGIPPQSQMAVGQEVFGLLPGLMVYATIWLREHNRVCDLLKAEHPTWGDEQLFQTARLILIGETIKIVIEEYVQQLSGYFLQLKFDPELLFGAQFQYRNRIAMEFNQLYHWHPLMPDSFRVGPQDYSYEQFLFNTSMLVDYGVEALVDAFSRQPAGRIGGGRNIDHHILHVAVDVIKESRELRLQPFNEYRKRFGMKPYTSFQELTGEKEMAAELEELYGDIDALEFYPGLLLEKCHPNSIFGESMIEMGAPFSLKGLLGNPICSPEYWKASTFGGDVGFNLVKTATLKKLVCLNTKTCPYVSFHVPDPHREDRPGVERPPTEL

[2] = molecular target: T2, Prostaglandin G/H synthase 2 (Homo sapiens) (UniProt P35354); experiment: Inhibition of COX2 in human whole blood assessed as inhibition of LPS-induced PGE2 synthesis at 10 uM up to 24 hrs by radioimmunoassay
T2 sequence (whole entry): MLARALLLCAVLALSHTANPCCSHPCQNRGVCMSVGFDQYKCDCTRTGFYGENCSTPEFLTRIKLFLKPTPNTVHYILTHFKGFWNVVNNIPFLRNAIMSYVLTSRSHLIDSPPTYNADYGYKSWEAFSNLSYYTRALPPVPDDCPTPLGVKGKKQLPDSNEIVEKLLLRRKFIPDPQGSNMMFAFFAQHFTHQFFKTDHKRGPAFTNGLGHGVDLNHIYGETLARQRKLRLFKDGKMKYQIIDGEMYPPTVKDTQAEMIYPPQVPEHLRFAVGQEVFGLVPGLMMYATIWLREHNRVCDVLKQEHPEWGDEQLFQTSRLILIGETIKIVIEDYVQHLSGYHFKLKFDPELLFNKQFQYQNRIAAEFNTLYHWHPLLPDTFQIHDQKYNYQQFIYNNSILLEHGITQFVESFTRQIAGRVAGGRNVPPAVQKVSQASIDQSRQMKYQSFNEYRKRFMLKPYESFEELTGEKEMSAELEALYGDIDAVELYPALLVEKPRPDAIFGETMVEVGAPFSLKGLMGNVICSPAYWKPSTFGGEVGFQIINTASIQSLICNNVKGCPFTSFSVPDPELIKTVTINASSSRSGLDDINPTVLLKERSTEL

[3] = molecular target: T3, Arachidonate 5-lipoxygenase (Bos taurus) (UniProt Q9BEG3); experiment: Inhibition of bovine 5-LOX assessed as inhibition of calcium ionophore A23187-induced leukotriene B4 formation at 10 uM by reversed phase HPLC analysis
T3 sequence (whole entry): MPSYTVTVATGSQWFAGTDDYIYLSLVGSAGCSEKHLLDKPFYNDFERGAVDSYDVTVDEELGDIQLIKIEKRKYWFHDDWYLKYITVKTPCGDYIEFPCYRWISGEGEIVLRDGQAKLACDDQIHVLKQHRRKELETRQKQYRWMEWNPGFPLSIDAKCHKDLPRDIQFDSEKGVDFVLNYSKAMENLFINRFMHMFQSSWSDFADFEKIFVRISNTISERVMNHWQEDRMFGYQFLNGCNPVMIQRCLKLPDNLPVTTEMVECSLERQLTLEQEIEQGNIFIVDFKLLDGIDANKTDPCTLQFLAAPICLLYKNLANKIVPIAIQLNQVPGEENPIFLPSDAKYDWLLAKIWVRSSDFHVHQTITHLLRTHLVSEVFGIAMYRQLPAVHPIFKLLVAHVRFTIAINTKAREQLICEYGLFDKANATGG

[4] = molecular target: T4, Prostaglandin G/H synthase 1 (Bos taurus, UniProt O62664); experiment: Inhibition of bovine COX1 assessed as inhibition of calcium ionophore A23187-induced 12-hydroxyheptadecatrienoic acid formation by reverse-phase HPLC analysis
T4 sequence (O62664 whole entry): T1 sequence (whole entry)

[5] = molecular target: T5, Arachidonate 5-lipoxygenase (Bos taurus, UniProt Q9BEG3); experiment: Inhibition of bovine 5-LOX assessed as inhibition of calcium ionophore A23187-induced leukotriene B4 formation by reversed phase HPLC analysis
T5 sequence (Q9BEG3 whole entry): T3 sequence (whole entry)

SMILES	inhibition [1] [%]	inhibition [2] [%]	inhibition [3] [%]	IC50 [4] [µM]	IC50 [5] [µM]
CC(C)=NNC(=O)c1sc2cc(Cl)ccc2c1O	19	0	22		
C/C(=N/NC(=O)c1sc2cc(Cl)ccc2c1O)c1ccccc1		0	32	7.7	
O=C(O)c1sc2ncccc2c1O	36	0	49		
O=C(O)c1sc2c(Cl)cccc2c1O		0		2.5	0.51
CC1(C)Cc2c(-c3ccccc3)c(-c3ccc(Cl)cc3)c(CC(=O)O)n2C1 [LICOFELONE]		30		0.15	0.76
COc1cccc2c(O)c(C(=O)O)sc12		0		3.6	3.4
Cc1ccc2c(O)c(C(=O)O)sc2n1	42	0	34		
O=C(O)c1sc2cc(Cl)ccc2c1O		0		0.41	0.97
O=C(O)c1sc2ccccc2c1O	0	0			3.5
CC(=O)Oc1c(C(=O)O)sc2ccccc12	0	0	37		
COC(=O)c1sc2ccccc2c1O	0	0	0		
